Target: T1, HIS-tagged RORγ-LBD protein (Homo sapiens, UniProt P51449)
T1 construct: made in house; host or cells: SF9 cells, baculovirus expression system; the lysate was used
T1 sequence (P51449 269-508 limits assumed): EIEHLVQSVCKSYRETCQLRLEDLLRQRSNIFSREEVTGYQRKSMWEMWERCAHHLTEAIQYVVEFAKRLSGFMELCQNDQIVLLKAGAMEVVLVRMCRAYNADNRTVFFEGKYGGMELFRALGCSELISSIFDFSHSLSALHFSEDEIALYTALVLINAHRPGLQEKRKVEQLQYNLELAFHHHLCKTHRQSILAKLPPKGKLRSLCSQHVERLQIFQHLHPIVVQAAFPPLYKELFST
Test: RORγ-Ligand Binding Domain (LBD) TR-FRET Assay
Assay type: biochemical
Details: for TR-FRET Assay Max Response: upper plateau of 4-parameter fit, signal in the absence of ursolic acid or test compound set as 100; for EC50: with 2 μM RORγ antagonist ursolic acid, biotinylated SRC1 LXXLL peptide, ratio 665 nm/615 nm
Method: Exemplary compounds from the above Examples were tested for ability to increase RORγ activity using (i) a RORγ-Ligand Binding Domain (LBD) TR-FRET Assay, and (ii) a Gal4-RORγ Luciferase Reporter Assay in HEK-293T Cells. Assay procedures and results are described below.
Part I—Procedures for RORγ-Ligand Binding Domain TR-FRET Assay
HIS-tagged RORγ-LBD protein was expressed in SF9 cells using a baculovirus expression system. The lysate was diluted in assay buffer (50 mM Tris pH 7.0, 50 mM KCl, 1 mM EDTA, 0.1 mM DTT, 0.01% BSA) to obtain RORγ-LBD final concentration of −3 nM in a 384-well assay plate (need to titrate for each batch of protein).
A stock of biotinylated-LXXLL peptide from coactivator SRC1 (Biotin-[…]) was prepared in assay buffer and added to each well (200 nM final concentration). A solution of Europium tagged anti-HIS antibody (0.6 nM final concentration) and APC-conjugated streptavidin (30 nM final concentration) were also added to each well. RORγ antagonist ursolic acid was also included at a final concentration of 2 μM. Compounds were diluted in DMSO and further diluted in assay buffer with a final DMSO concentration at 1%.
The final assay mixture was incubated overnight at 4° C. or 2 hours at room temperature, and the fluorescence signal was measured on an Envision plate reader: (Excitation filter=340 nm; APC emission=665 nm; Europium emission=615 nm; dichroic mirror=D400/D630; delay time=100 μs, integration time=200 μs). 50% Effective concentration (EC50) values for test compounds were calculated from the quotient of the fluorescence signal at 665 nm divided by the fluorescence signal at 615 nm. The quotient of the fluorescence signals in the absence of ursolic acid or test compound is set as 100. Max Response is defined as the upper plateau in the signal as determined by line-fit using a 4-parameter logistic model in PRISM (GraphPad).

| SMILES | EC50 | TR-FRET Assay Max Response |
| --- | --- | --- |
| CCN(c1cccc(OCc2ccccc2F)c1)S(=O)(=O)c1cccc(C(F)(F)F)c1 | < 0.5 µM | *** (The symbol “***” indicates a value in the range of greater than 150 to 200) |
| CCN(c1cccc(COC2CCCCC2C(F)(F)F)c1)S(=O)(=O)c1cccc(C(F)(F)F)c1 (stereo not shown) | 0.5 to 5 µM | ** (The symbol “**” indicates a value in the range of greater than 90 to 150) |
| CCN(c1cccc(C(C)Oc2ccccc2Cl)c1)S(=O)(=O)c1cccc(C(F)(F)F)c1 (stereo not shown) | > 10 µM | ** (The symbol “**” indicates a value in the range of greater than 90 to 150) |
| CCN(c1cccc(COc2ccccc2Cl)c1)S(=O)(=O)c1cccc(C(F)(F)F)c1 | 0.5 to 5 µM | ** (The symbol “**” indicates a value in the range of greater than 90 to 150) |
| CCN(c1cccc(Cn2c(=O)oc3ccccc32)c1)S(=O)(=O)c1cccc(C(F)(F)F)c1 | > 10 µM | ** (The symbol “**” indicates a value in the range of greater than 90 to 150) |
| CCN(Cc1ccccc1Cl)c1cccc(N(CC)S(=O)(=O)c2cccc(C(F)(F)F)c2)c1 | > 10 µM | ** (The symbol “**” indicates a value in the range of greater than 90 to 150) |
| CCN(c1cccc(CNCc2ccccc2Cl)c1)S(=O)(=O)c1cccc(C(F)(F)F)c1 | > 10 µM | ** (The symbol “**” indicates a value in the range of greater than 90 to 150) |
| CCN(c1cccc(OCCc2ccccc2)c1)S(=O)(=O)c1cccc(C(F)(F)F)c1 | > 10 µM | ** (The symbol “**” indicates a value in the range of greater than 90 to 150) |
| CCN(c1cccc(OC(C)c2c(F)cccc2Cl)c1)S(=O)(=O)c1cccc(C(F)(F)F)c1 (stereo not shown) | > 10 µM |  |
| CCN(c1cccc(OCc2ccc(Cl)cc2Cl)c1)S(=O)(=O)c1cccc(C(F)(F)F)c1 | > 10 µM | ** (The symbol “**” indicates a value in the range of greater than 90 to 150) |
| CCN(c1cccc(OCc2cccc(C(F)(F)F)c2Cl)c1)S(=O)(=O)c1cccc(C(F)(F)F)c1 | > 10 µM |  |
| CCOc1nn(CC)cc1S(=O)(=O)N(CC)c1cccc(OCc2ccccc2)c1 | > 10 µM |  |
| CCC(c1cccc(OCc2c(F)cccc2Cl)c1)S(=O)(=O)c1cccc(C(F)(F)F)c1 (stereo not shown) | < 0.5 µM | *** (The symbol “***” indicates a value in the range of greater than 150 to 200) |
| CCC(c1cccc(OCc2ccccc2)c1)S(=O)(=O)c1ccc(Cl)cc1 (stereo not shown) | > 10 µM | * (The symbol “*” indicates a value in the range of 70 to 90) |
| CCC(c1cccc(OCc2c(F)cccc2Cl)c1)S(=O)(=O)c1ccc(Cl)cc1 (stereo not shown) | < 0.5 µM | *** (The symbol “***” indicates a value in the range of greater than 150 to 200) |

The next lines start with results.

| EC50 | SMILES | TR-FRET Assay Max Response |
| --- | --- | --- |
| < 0.5 µM | CCN(c1cccc(COC2(C)CCCCC2)c1)S(=O)(=O)c1cccc(C(F)(F)F)c1 | ** (The symbol “**” indicates a value in the range of greater than 90 to 150) |
| 0.5 to 5 µM | CCN(c1cccc(COC2CCCCC2)c1)S(=O)(=O)c1cccc(C(F)(F)F)c1 | ** (The symbol “**” indicates a value in the range of greater than 90 to 150) |
| < 0.5 µM | CCN(c1cccc(C(C)Oc2c(F)cccc2Cl)c1)S(=O)(=O)c1cccc(C(F)(F)F)c1 (stereo not shown) | ** (The symbol “**” indicates a value in the range of greater than 90 to 150) |
| < 0.5 µM | CCN(c1cccc(COc2c(F)cccc2Cl)c1)S(=O)(=O)c1cccc(C(F)(F)F)c1 | ** (The symbol “**” indicates a value in the range of greater than 90 to 150) |
| > 10 µM | CCN(c1cccc(Cn2ncc3ccccc32)c1)S(=O)(=O)c1cccc(C(F)(F)F)c1 | ** (The symbol “**” indicates a value in the range of greater than 90 to 150) |
| 0.5 to 5 µM | CCN(Cc1cccc(N(CC)S(=O)(=O)c2cccc(C(F)(F)F)c2)c1)c1ccccc1Cl | ** (The symbol “**” indicates a value in the range of greater than 90 to 150) |
| 0.5 to 5 µM | CCN(c1cccc(CN2CCc3ccccc32)c1)S(=O)(=O)c1cccc(C(F)(F)F)c1 | ** (The symbol “**” indicates a value in the range of greater than 90 to 150) |
| > 10 µM | CCN(c1cccc(CNc2ccccc2Cl)c1)S(=O)(=O)c1cccc(C(F)(F)F)c1 | ** (The symbol “**” indicates a value in the range of greater than 90 to 150) |
| > 10 µM | CCN(c1cccc(OCc2cc(C(F)(F)F)ccc2Cl)c1)S(=O)(=O)c1cccc(C(F)(F)F)c1 | *** (The symbol “***” indicates a value in the range of greater than 150 to 200) |
| > 10 µM | CCN(c1cccc(OCc2cccc(Cl)c2Cl)c1)S(=O)(=O)c1cccc(C(F)(F)F)c1 |  |
| > 10 µM | CCN(c1cccc(CNC2CCCCC2)c1)S(=O)(=O)c1cccc(C(F)(F)F)c1 |  |
| 0.5 to 5 µM | CCN(c1cccc(OC2Cc3ccccc3C2)c1)S(=O)(=O)c1cccc(C(F)(F)F)c1 | *** (The symbol “***” indicates a value in the range of greater than 150 to 200) |
| < 0.5 µM | CCN(c1cccc(OCC2CCCCC2)c1)S(=O)(=O)c1cccc(C(F)(F)F)c1 | **** (The symbol “****” indicates a value greater than 200) |
| < 0.5 µM | CCN(c1cccc(OCc2c(F)cccc2Cl)c1)S(=O)(=O)c1cccc(C(F)(F)F)c1 | **** (The symbol “****” indicates a value greater than 200) |
| < 0.5 µM | CCN(c1cccc(OC2CCc3ccccc32)c1)S(=O)(=O)c1cccc(C(F)(F)F)c1 (stereo not shown) | **** (The symbol “****” indicates a value greater than 200) |
| 0.5 to 5 µM | CCN(c1cccc(OCc2ccccc2)c1)S(=O)(=O)c1cccc(C(F)(F)F)c1 | *** (The symbol “***” indicates a value in the range of greater than 150 to 200) |
| 0.5 to 5 µM | CCC(c1ccc(OCc2ccccc2)cc1)S(=O)(=O)c1cccc(C(F)(F)F)c1 (stereo not shown) | ** (The symbol “**” indicates a value in the range of greater than 90 to 150) |
| 0.5 to 5 µM | CCC(c1ccc(OCc2ccccc2)cc1)S(=O)(=O)c1ccc(Cl)cc1 (stereo not shown) | *** (The symbol “***” indicates a value in the range of greater than 150 to 200) |

From patent US10189777B2, “Benzenesulfonamido and related compounds for use as agonists of RORγ and the treatment of disease” (Lycera Corporation, priority 2014, dated 2019)
